Results as given in patent publication US20230043863A1, “HETEROAROMATIC DERIVATIVES FOR USE AS REGULATOR, PREPARATION METHOD THEREFOR AND USE THEREOF” (JIANGSU HANSOH PHARMACEUTICAL GROUP CO., LTD., priority 2018, published 2023).

Tests used:
TYK2 = TYK2 (Homo sapiens, UniProt P29597); experiment: JAK kinase activity inhibition, TR-FRET (TYK2); type: biochemical; details: TR-FRET kinase assay
Outline: (§1)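 Enzymatic inhibition measured by time-resolved FRET using 0.1-20 nM kinase with peptide substrate and ATP, reacted 0.5-5 hours at room temperature. Percent inhibition was normalized to DMSO (no inhibitor) and kinase-free wells, and concentration-response data were fitted with a 4-parameter logistic model.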

JAK1 = JAK1 (Homo sapiens, UniProt P23458); experiment: JAK kinase activity inhibition, TR-FRET (JAK1); type: biochemical; details: TR-FRET kinase assay
Outline: as §1

[1] = test system: JAK-STAT signal pathway of U266 cells; experiment: Inhibition of cellular JAK-STAT signal pathway (STAT3 phosphorylation) in U266 cells; type: cell-based, human
Protocol: The objective of the test is to test the inhibitory activity of the compound on the cellular JAK-STAT signaling pathway.
U266 cell line was used in this experiment, by activating the JAK-STAT signaling pathway through INF-a stimulation, the inhibitory activity of the compound on its downstream STAT3 phosphorylation was detected, and the half inhibitory concentration IC50 of the compound on the JAK-STAT signaling pathway activity was obtained.
3-12 μL of U266 cell line was spread into the 384-well detection plate, and the number of cells in each well was 100-300 K, followed by addition of 2 μL of the compound solution serially diluted. The plate was incubated for 2 hours with shaking at 350 rpm at room temperature. After 2 hours, 2 μL of INF-a with a final concentration of 1000 U/mL was added. The plate was shaken at room temperature for 15 minutes. 2-5 μL (5×) LANCE Ultra Lysis Buffer 2 solution was added and the plate was shaken at room temperature for 2 hours. After 2 hours, 5 μL of LANCE Ultra Eu-labeled Anti-STAT3 Antibody (PerkinElmer) with a final concentration of 0.5 nM and LANCE Ultra ULight-labeled Anti-STAT3 Antibody (PerkinElmer) with a final concentration of 5 nM were added, and the plate was incubated overnight at room temperature. The fluorescence signal value at 665 nm of each well was measured with the microplate reader, and the inhibition rate was calculated from the fluorescence signal value. According to the inhibition rate of different concentrations, the IC50 of the compound was obtained by curve fitting.
The percentage inhibition data of the wells treated with the compound was calculated with the positive control wells (DMSO control wells) and negative control wells (no kinase added) on the plate {% inhibition rate=100-[(test compound value-negative control value)]/(Positive control value-negative control value)×100}. IC50 value was calculated by using GraphPad prism to fit the data of different concentrations and corresponding percentage inhibition rates to a 4-parameter non-linear logic formula.

[2] = Homo sapiens, U-266, INF-a 1000 U/mL stimulation

Chain of TYK2 (P29597 whole entry): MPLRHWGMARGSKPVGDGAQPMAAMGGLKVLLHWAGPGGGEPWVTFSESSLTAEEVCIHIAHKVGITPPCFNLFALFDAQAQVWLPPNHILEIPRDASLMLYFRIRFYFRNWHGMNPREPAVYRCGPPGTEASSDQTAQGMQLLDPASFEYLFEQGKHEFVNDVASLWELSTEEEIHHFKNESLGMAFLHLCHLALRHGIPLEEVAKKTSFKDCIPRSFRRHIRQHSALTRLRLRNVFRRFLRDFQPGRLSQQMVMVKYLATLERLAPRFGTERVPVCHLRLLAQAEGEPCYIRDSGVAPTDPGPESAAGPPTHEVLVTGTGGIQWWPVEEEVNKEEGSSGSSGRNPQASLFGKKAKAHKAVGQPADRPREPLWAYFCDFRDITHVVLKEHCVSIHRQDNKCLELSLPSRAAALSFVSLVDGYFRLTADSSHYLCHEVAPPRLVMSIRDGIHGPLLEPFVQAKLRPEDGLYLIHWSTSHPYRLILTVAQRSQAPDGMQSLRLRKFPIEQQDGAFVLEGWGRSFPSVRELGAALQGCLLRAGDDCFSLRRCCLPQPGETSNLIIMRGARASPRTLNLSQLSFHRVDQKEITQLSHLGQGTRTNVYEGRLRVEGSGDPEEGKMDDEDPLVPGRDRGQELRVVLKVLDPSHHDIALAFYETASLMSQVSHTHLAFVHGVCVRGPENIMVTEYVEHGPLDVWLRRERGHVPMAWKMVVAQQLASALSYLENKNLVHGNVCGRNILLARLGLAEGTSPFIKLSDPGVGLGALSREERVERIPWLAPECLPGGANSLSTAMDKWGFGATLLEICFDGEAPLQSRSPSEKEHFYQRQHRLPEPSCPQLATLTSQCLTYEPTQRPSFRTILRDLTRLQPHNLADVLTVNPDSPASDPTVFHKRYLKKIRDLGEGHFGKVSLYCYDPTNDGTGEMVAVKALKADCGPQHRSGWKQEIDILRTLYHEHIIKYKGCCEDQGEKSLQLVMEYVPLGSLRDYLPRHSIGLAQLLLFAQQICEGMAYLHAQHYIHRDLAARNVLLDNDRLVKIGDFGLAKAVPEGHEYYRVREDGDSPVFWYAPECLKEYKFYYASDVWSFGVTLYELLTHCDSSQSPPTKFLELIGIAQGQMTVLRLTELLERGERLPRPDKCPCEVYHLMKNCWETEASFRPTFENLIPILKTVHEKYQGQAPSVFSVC
Chain of JAK1 (P23458 whole entry): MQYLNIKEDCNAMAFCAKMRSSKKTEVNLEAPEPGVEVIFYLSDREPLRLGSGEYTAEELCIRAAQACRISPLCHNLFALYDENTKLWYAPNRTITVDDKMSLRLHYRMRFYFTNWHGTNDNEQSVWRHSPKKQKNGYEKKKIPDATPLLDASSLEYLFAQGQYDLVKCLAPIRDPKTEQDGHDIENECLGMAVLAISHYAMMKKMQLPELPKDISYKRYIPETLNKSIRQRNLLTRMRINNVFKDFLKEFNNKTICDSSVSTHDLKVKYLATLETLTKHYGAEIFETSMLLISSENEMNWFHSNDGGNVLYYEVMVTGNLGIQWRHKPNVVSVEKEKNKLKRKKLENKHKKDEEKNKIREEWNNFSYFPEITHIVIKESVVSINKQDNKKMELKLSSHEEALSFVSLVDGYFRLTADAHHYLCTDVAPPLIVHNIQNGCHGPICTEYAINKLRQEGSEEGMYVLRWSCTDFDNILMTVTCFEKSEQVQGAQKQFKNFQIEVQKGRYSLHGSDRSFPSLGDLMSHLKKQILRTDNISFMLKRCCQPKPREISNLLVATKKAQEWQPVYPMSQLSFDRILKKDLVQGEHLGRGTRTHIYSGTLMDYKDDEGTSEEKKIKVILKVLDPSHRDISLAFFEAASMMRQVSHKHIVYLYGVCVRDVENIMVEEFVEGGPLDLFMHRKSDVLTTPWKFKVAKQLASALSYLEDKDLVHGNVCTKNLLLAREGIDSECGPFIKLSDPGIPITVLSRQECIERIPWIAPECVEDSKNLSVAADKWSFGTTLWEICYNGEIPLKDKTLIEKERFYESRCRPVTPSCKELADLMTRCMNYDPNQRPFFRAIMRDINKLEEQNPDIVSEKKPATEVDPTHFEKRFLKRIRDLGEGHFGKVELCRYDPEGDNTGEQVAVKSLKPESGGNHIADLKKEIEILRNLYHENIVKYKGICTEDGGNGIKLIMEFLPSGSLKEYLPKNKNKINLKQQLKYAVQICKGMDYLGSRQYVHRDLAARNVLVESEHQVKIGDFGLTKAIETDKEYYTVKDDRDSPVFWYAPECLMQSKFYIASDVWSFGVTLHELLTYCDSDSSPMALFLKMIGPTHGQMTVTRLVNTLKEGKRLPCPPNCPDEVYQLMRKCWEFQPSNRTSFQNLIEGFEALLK

Structure (SMILES): Cc1cc(Nc2nc(N[C@@H]3C[C@H]4CC[C@@H](C3)N4S(=O)(=O)N3CC(C#N)C3)nc3cccnc23)n[nH]1 [Embodiment 220, 1-(((3-exo)-3-((4-((5-methyl-1H-pyrazol-3-yl)amino)pyrido[3,2-d]pyrimidin-2-yl)amino)-8-azabicyclo[3.2.1]oct-8-yl)sulfonyl)azetindin-3-formonitrile]
- IC50 (TYK2): 4.27 nM
- IC50 (JAK1): 0.67 nM
- IC50 [1, 2]: 10.2 nM

Structure (SMILES): CN(c1nc(Nc2cc(CO)[nH]n2)c2ccc(Cl)cc2n1)[C@@H]1C[C@H]2CCC[C@@H](C1)N2CCC#N [Embodiment 235, 3-((3-exo)-3-((7-chloro-4-((5-(hydroxymethyl)-1H-pyrazol-3-yl)amino)quinazolin-2-yl)(methyl)amino)-9-azabicyclo[3.3.1]non-9-yl)propionitrile]
- IC50 (TYK2): 2.71 nM
- IC50 (JAK1): 3.33 nM
- IC50 [1, 2]: 44.4 nM

Structure (SMILES): Cc1cc(Nc2nc(N(C)[C@@H]3C[C@H]4CC[C@@H](C3)N4S(=O)(=O)N3CC(C#N)C3)nc3sc(C)cc23)n[nH]1 [Embodiment 240, 1-(((3-exo)-3-(methyl(6-methyl-4-((5-methyl-1H-pyrazol-3-yl)amino)thieno[2,3-d]pyrimidin-2-yl)amino)-8-azabicyclo[3.2.1]oct-8-yl)sulfonyl)azetindin-3-formonitrile]
- IC50 (TYK2): 0.68 nM
- IC50 (JAK1): 0.49 nM
- IC50 [1, 2]: 14.4 nM

Structure (SMILES): Cc1cc(Nc2nc(N(C)[C@@H]3C[C@H]4CC[C@@H](C3)N4C(=O)CN3CCOCC3)nc3sccc23)n[nH]1 [Embodiment 245, 1-((3-exo)-3-(methyl(4-((5-methyl-1H-pyrazol-3-yl)amino)thieno[2,3-d]pyrimidin-2-yl)amino)-8-azabicyclo[3.2.1]oct-8-yl)-2-morpholinoethane-1-one]
- IC50 (TYK2): 2.76 nM
- IC50 (JAK1): 2.77 nM
- IC50 ([1]; INF-a 1000 U/mL stimulation): 16.7 nM

Structure (SMILES): Cc1cc(Nc2nc(N[C@@H]3C[C@H]4CC[C@@H](C3)N4C(=O)[C@H]3CCCN3)nc3sccc23)n[nH]1 [Embodiment 248, ((3-exo)-3-((4-((5-methyl-1H-pyrazol-3-yl)amino)thieno[2,3-d]pyrimidin-2-yl)amino)-9-azabicyclo[3.3.1]non-9-yl) ((R)-pyrrolidin-2-yl)methanone]
- IC50 (TYK2): 0.36 nM
- IC50 (JAK1): 0.44 nM
- IC50 [1, 2]: 43.5 nM

Structure (SMILES): Cc1cc(Nc2nc(N[C@@H]3C[C@H]4CCC[C@@H](C3)N4C(=O)[C@H]3COCCN3)nc3sccc23)n[nH]1 [Embodiment 250, ((3-exo)-3-((4-((5-methyl-1H-pyrazol-3-yl)amino)thieno[2,3-d]pyrimidin-2-yl)amino)-9-azabicyclo[3.3.1]non-9-yl)((R)-morpholine-3-yl)methanone]
- IC50 (TYK2): 0.07 nM
- IC50 (JAK1): 0.04 nM
- IC50 [1, 2]: 7.3 nM

Structure (SMILES): CCNCC(=O)N1[C@@H]2CC[C@H]1C[C@H](Nc1nc(Nc3cc(C)[nH]n3)c3ccsc3n1)C2 [Embodiment 255, 2-(ethylamino)-1-((3-exo)-3-((4-((5-methyl-1H-pyrazol-3-yl)amino)thieno[2,3-d]pyrimidin-2-yl)amino)-8-azabicyclo[3.2.1]oct-8-yl)ethane-1-one]
- IC50 (TYK2): 2.38 nM
- IC50 (JAK1): 1.17 nM
- IC50 [1, 2]: 8.67 nM

Structure (SMILES): Cc1cc(Nc2nc(N[C@@H]3C[C@H]4CCC[C@@H](C3)N4C(=O)CN3CCN(C)CC3)nc3sccc23)n[nH]1 [Embodiment 258, 1-((3-exo)-3-((4-((5-methyl-1H-pyrazol-3-yl)amino)thieno[2,3-d]pyrimidin-2-yl)amino)-9-azabicyclo[3.3.1]non-9-yl)-2-(4-methylpiperazin-1-yl)ethane-1-one]
- IC50 (TYK2): 0.61 nM
- IC50 (JAK1): 0.27 nM
- IC50 [1, 2]: 32.7 nM

Structure (SMILES): Cc1cc(Nc2nc(N[C@@H]3C[C@H]4CCC[C@@H](C3)N4C(=O)c3cccnc3)nc3sccc23)n[nH]1 [Embodiment 261, ((3-exo)-3-((4-((5-methyl-1H-pyrazol-3-yl)amino)thieno[2,3-d]pyrimidin-2-yl)amino)-9-azabicyclo[3.3.1]non-9-yl)(pyridin-3-yl)methanone]
- IC50 (TYK2): 5.58 nM
- IC50 (JAK1): 0.04 nM
- IC50 [1, 2]: 10.6 nM
